Experimental data: article PMC5218480 (PLoS ONE, 2017)

System: MV-4-11 cells
Experiment: Gene expression microarray analysis (Affymetrix PrimeView) and GSEA
Format: cell-based, human
Set-up: RFU PODN (11730768_x_at) / Fold change /veh PODN (11730768_x_at) / RFU LINC00158 (11744669_a_at) / Fold change /veh LINC00158 (11744669_a_at) / RFU DUSP10 (11751237_a_at) / Fold change /veh DUSP10 (11751237_a_at) / RFU ID3 (11757404_x_at) / Fold change /veh ID3 (11757404_x_at) / RFU PLEKHG5 (11737974_s_at) / Fold change /veh PLEKHG5 (11737974_s_at) / RFU LRRC4B (11730491_at) / Fold change /veh LRRC4B (11730491_at) / RFU GIMAP4 (11747438_a_at) / Fold change /veh GIMAP4 (11747438_a_at) / RFU KRT8 (11758183_x_at) / Fold change /veh KRT8 (11758183_x_at) / RFU CNN1 (11734310_a_at) / Fold change /veh CNN1 (11734310_a_at) / RFU VPS37D (11726825_at) / Fold change /veh VPS37D (11726825_at) / RFU C10orf10 (11716522_x_at) / Fold change /veh C10orf10 (11716522_x_at) / RFU KIR2DL2 /// KIR2DL4 /// KIR2DL5A /// KIR2DL5B /// KIR2DS1 /// KIR2DS2 /// KIR2DS3 /// KIR2DS4 /// KIR3DL3 /// KIR3DL3 /// KIR3DS1 (11738374_at) / Fold change /veh KIR2DL2 /// KIR2DL4 /// KIR2DL5A /// KIR2DL5B /// KIR2DS1 /// KIR2DS2 /// KIR2DS3 /// KIR2DS4 /// KIR3DL3 /// KIR3DL3 /// KIR3DS1 (11738374_at) / RFU C1QL1 (11718748_at) / Fold change /veh C1QL1 (11718748_at) / RFU TMPRSS4 (11747572_a_at) / Fold change /veh TMPRSS4 (11747572_a_at) / RFU HAMP (11756126_x_at) / Fold change /veh HAMP (11756126_x_at) / RFU RNFT2 (11725882_a_at) / Fold change /veh RNFT2 (11725882_a_at) / RFU NR4A2 (11747474_a_at) / Fold change /veh NR4A2 (11747474_a_at) / RFU ABCC12 (11746883_a_at) / Fold change /veh ABCC12 (11746883_a_at) / RFU TMEM136 (11760407_x_at) / Fold change /veh TMEM136 (11760407_x_at) / RFU CLDN22 /// WWC2 (11732394_at) / Fold change /veh CLDN22 /// WWC2 (11732394_at) / RFU HLA-DPB1 (11760878_x_at) / Fold change /veh HLA-DPB1 (11760878_x_at) / RFU SPINT1 (11716480_a_at) / Fold change /veh SPINT1 (11716480_a_at) / RFU GAP43 (11754022_s_at) / Fold change /veh GAP43 (11754022_s_at) / RFU A4GNT (11735810_at) / Fold change /veh A4GNT (11735810_at) / RFU PRB3 (11715151_x_at) / Fold change /veh PRB3 (11715151_x_at) / RFU TUBB4B (11761932_at) / Fold change /veh TUBB4B (11761932_at) / RFU CAPN14 (11732068_a_at) / Fold change /veh CAPN14 (11732068_a_at) / RFU TMCC2 (11721928_a_at) / Fold change /veh TMCC2 (11721928_a_at) / RFU IRGQ (11745062_a_at) / Fold change /veh IRGQ (11745062_a_at) / RFU FAM174B (11720279_a_at) / Fold change /veh FAM174B (11720279_a_at) / RFU TMPRSS4 (11748680_a_at) / Fold change /veh TMPRSS4 (11748680_a_at) / RFU FAM212B (11763350_a_at) / Fold change /veh FAM212B (11763350_a_at) / RFU PLEKHG5 (11743358_a_at) / Fold change /veh PLEKHG5 (11743358_a_at) / RFU ZSCAN30 (11745921_a_at) / Fold change /veh ZSCAN30 (11745921_a_at) / RFU CMKLR1 (11741424_a_at) / Fold change /veh CMKLR1 (11741424_a_at) / RFU LOC101060620 /// MAPK8IP1 (11723275_at) / Fold change /veh LOC101060620 /// MAPK8IP1 (11723275_at) / RFU SPTSSB (11747773_x_at) / Fold change /veh SPTSSB (11747773_x_at) / RFU PRSS12 (11739890_at) / Fold change /veh PRSS12 (11739890_at) / RFU BIN1 (11741810_x_at) / Fold change /veh BIN1 (11741810_x_at) / RFU WNT11 (11732464_a_at) / Fold change /veh WNT11 (11732464_a_at) / RFU C10orf10 (11716521_a_at) / Fold change /veh C10orf10 (11716521_a_at) / RFU C5orf56 (11738089_at) / Fold change /veh C5orf56 (11738089_at) / RFU CYB561 (11721691_x_at) / Fold change /veh CYB561 (11721691_x_at) / RFU ANKRD19P (11752326_a_at) / Fold change /veh ANKRD19P (11752326_a_at) / RFU OR2T12 /// OR2T33 /// OR2T8 (11738714_s_at) / Fold change /veh OR2T12 /// OR2T33 /// OR2T8 (11738714_s_at) / RFU VCAN (11748164_a_at) / Fold change /veh VCAN (11748164_a_at) / RFU JSRP1 (11732532_at) / Fold change /veh JSRP1 (11732532_at) / RFU KRTAP10-11 (11738290_x_at) / Fold change /veh KRTAP10-11 (11738290_x_at) / RFU MYO3A (11730013_a_at) / Fold change /veh MYO3A (11730013_a_at) / RFU EBF3 (11725865_a_at) / Fold change /veh EBF3 (11725865_a_at) / RFU CAMK2N1 (11719241_x_at) / Fold change /veh CAMK2N1 (11719241_x_at) / RFU C5orf56 (11738088_a_at) / Fold change /veh C5orf56 (11738088_a_at) / RFU OLFML3 (11715873_a_at) / Fold change /veh OLFML3 (11715873_a_at) / RFU LOC100653217 /// NTM (11731650_a_at) / Fold change /veh LOC100653217 /// NTM (11731650_a_at) / RFU MAPK11 (11762145_a_at) / Fold change /veh MAPK11 (11762145_a_at) / RFU FIZ1 (11724087_x_at) / Fold change /veh FIZ1 (11724087_x_at) / RFU OASL (11726364_x_at) / Fold change /veh OASL (11726364_x_at) / RFU SOX15 (11748057_x_at) / Fold change /veh SOX15 (11748057_x_at) / RFU CD79A (11719716_a_at) / Fold change /veh CD79A (11719716_a_at) / RFU HIST1H1D (11736915_at) / Fold change /veh HIST1H1D (11736915_at) / RFU CASKIN2 (11723855_a_at) / Fold change /veh CASKIN2 (11723855_a_at) / RFU LOC730098 (11760151_x_at) / Fold change /veh LOC730098 (11760151_x_at) / RFU OR4N2 (11742367_at) / Fold change /veh OR4N2 (11742367_at) / RFU PRRT2 (11749266_a_at) / Fold change /veh PRRT2 (11749266_a_at) / RFU SNX32 (11753110_a_at) / Fold change /veh SNX32 (11753110_a_at) / RFU CDHR5 (11726645_a_at) / Fold change /veh CDHR5 (11726645_a_at) / RFU RCAN1 (11760418_a_at) / Fold change /veh RCAN1 (11760418_a_at) / RFU FAM167A (11723789_a_at) / Fold change /veh FAM167A (11723789_a_at) / RFU FAM26E (11764081_at) / Fold change /veh FAM26E (11764081_at) / RFU ISYNA1 (11749810_s_at) / Fold change /veh ISYNA1 (11749810_s_at) / RFU ACY1 (11761880_at) / Fold change /veh ACY1 (11761880_at) / RFU 11764098_at / Fold change /veh 11764098_at / RFU SAMD14 (11745864_x_at) / Fold change /veh SAMD14 (11745864_x_at) / RFU NPB (11741838_a_at) / Fold change /veh NPB (11741838_a_at) / RFU TMPRSS6 (11731388_a_at) / Fold change /veh TMPRSS6 (11731388_a_at) / RFU KRTAP10-2 (11738614_at) / Fold change /veh KRTAP10-2 (11738614_at) / RFU ARHGAP8 /// PRR5-ARHGAP8 (11727945_x_at) / Fold change /veh ARHGAP8 /// PRR5-ARHGAP8 (11727945_x_at) / RFU KRTAP5-7 /// NADSYN1 (11734609_at) / Fold change /veh KRTAP5-7 /// NADSYN1 (11734609_at) / RFU RASL12 (11751679_a_at) / Fold change /veh RASL12 (11751679_a_at) / RFU CDKN2B (11736163_a_at) / Fold change /veh CDKN2B (11736163_a_at) / RFU PRF1 (11729649_at) / Fold change /veh PRF1 (11729649_at) / RFU, ZNF638 /// ZNF638-IT1 / Fold change vs veh, ZNF638 /// ZNF638-IT1 / RFU, PANK3 / Fold change vs veh, PANK3 / RFU, SH3YL1 / Fold change vs veh, SH3YL1 / RFU, ZEB2 / Fold change vs veh, ZEB2 / RFU, NRIP1 / Fold change vs veh, NRIP1 / RFU, PTTG1IP / Fold change vs veh, PTTG1IP / RFU, CAPN2 / Fold change vs veh, CAPN2 / RFU, MED14 / Fold change vs veh, MED14 / RFU, SNORA58 / Fold change vs veh, SNORA58 / RFU, C1orf63 / Fold change vs veh, C1orf63 / RFU, LRRFIP1 / Fold change vs veh, LRRFIP1 / RFU, NDUFAF7 / Fold change vs veh, NDUFAF7 / RFU, SLC12A2 / Fold change vs veh, SLC12A2 / RFU, IBTK / Fold change vs veh, IBTK / RFU, ESF1 / Fold change vs veh, ESF1 / Fold change vs veh, TMEM50B / RFU, TAOK1 / Fold change vs veh, TAOK1 / RFU, ACBD3 / Fold change vs veh, ACBD3 / RFU, TMA16 / Fold change vs veh, TMA16 / RFU, RWDD3 / Fold change vs veh, RWDD3 / RFU, BCAT1 / Fold change vs veh, BCAT1 / RFU, EDEM3 / Fold change vs veh, EDEM3 / RFU, TMEM33 / Fold change vs veh, TMEM33 / RFU, WDR75 / Fold change vs veh, WDR75 / RFU, AHCTF1 / Fold change vs veh, AHCTF1 / RFU, TFRC / Fold change vs veh, TFRC / RFU, ZDHHC17 / Fold change vs veh, ZDHHC17 / RFU, NOM1 / Fold change vs veh, NOM1 / RFU, ARL8B / Fold change vs veh, ARL8B / RFU, ZBTB11 / Fold change vs veh, ZBTB11 / RFU, TAMM41 / Fold change vs veh, TAMM41 / RFU, KIAA1704 /// LOC100996395 / Fold change vs veh, KIAA1704 /// LOC100996395 / RFU, ING1 / Fold change vs veh, ING1 / RFU, TRMT61B / Fold change vs veh, TRMT61B / RFU, FUBP3 / Fold change vs veh, FUBP3 / RFU, TP53 / Fold change vs veh, TP53 / RFU, TNKS2 / Fold change vs veh, TNKS2 / RFU, ZFP14 / Fold change vs veh, ZFP14 / RFU, ACTR2 / Fold change vs veh, ACTR2 / RFU, PPP3R1 / Fold change vs veh, PPP3R1 / RFU, PIK3R1 / Fold change vs veh, PIK3R1 / RFU, HNRNPA1 / Fold change vs veh, HNRNPA1 / RFU, RNF170 / Fold change vs veh, RNF170 / RFU, ZNF28 / Fold change vs veh, ZNF28 / RFU, RNGTT / Fold change vs veh, RNGTT / RFU, OGT / Fold change vs veh, OGT / RFU, BRD1 / Fold change vs veh, BRD1 / RFU, MARS / Fold change vs veh, MARS / RFU, ZNF655 / Fold change vs veh, ZNF655 / RFU, FAHD1 / Fold change vs veh, FAHD1 / RFU, BDP1 / Fold change vs veh, BDP1 / RFU, LRRCC1 / Fold change vs veh, LRRCC1 / RFU, ARID1A / Fold change vs veh, ARID1A / RFU, ZNF146 / Fold change vs veh, ZNF146 / RFU, ZNF330 / Fold change vs veh, ZNF330 / RFU, GPN3 / Fold change vs veh, GPN3 / RFU, C9orf123 / Fold change vs veh, C9orf123 / RFU, N4BP2L2 / Fold change vs veh, N4BP2L2 / RFU, ARFIP1 / Fold change vs veh, ARFIP1 / RFU, FAM179B / Fold change vs veh, FAM179B / RFU, BCL10 / Fold change vs veh, BCL10 / RFU, UHRF1BP1L / Fold change vs veh, UHRF1BP1L / RFU, BET1 / Fold change vs veh, BET1 / RFU, CNOT2 / Fold change vs veh, CNOT2 / RFU, ZNF268 / Fold change vs veh, ZNF268 / Fold change vs veh, ZNF507 / RFU, DGCR2 / Fold change vs veh, DGCR2 / RFU, WDSUB1 / Fold change vs veh, WDSUB1 / Fold change vs veh, HSP90B1 /// MIR3652 / RFU, ADSS / Fold change vs veh, ADSS / RFU, GK / Fold change vs veh, GK / RFU, ZNF148 / Fold change vs veh, ZNF148 / RFU, TAF9 / Fold change vs veh, TAF9 / RFU, SLC1A5 / Fold change vs veh, SLC1A5 / RFU, SLMO2 / Fold change vs veh, SLMO2 / RFU, ABCC4 / Fold change vs veh, ABCC4 / RFU, LOC101060439 /// RAP1B / Fold change vs veh, LOC101060439 /// RAP1B / RFU, RFX7 / Fold change vs veh, RFX7 / RFU, GTPBP10 / Fold change vs veh, GTPBP10 / RFU, CNEP1R1 / Fold change vs veh, CNEP1R1 / RFU, BIVM-ERCC5 /// ERCC5 / Fold change vs veh, BIVM-ERCC5 /// ERCC5 / RFU, ILF3 / Fold change vs veh, ILF3 / RFU 11762660_at / Fold change /veh 11762660_at / RFU VCAN (11757783_s_at) / Fold change /veh VCAN (11757783_s_at) / RFU DDX43 (11728927_at) / Fold change /veh DDX43 (11728927_at) / RFU KRT8 (11758188_x_at) / Fold change /veh KRT8 (11758188_x_at) / RFU NKD1 (11759106_at) / Fold change /veh NKD1 (11759106_at) / RFU SRD5A1 (11742802_a_at) / Fold change /veh SRD5A1 (11742802_a_at) / RFU TPSAB1 /// TPSB2 (11721975_s_at) / Fold change /veh TPSAB1 /// TPSB2 (11721975_s_at) / RFU GSTM3 (11746129_a_at) / Fold change /veh GSTM3 (11746129_a_at) / RFU IL23R (11737362_x_at) / Fold change /veh IL23R (11737362_x_at) / RFU TMEM51 (11727254_a_at) / Fold change /veh TMEM51 (11727254_a_at) / RFU PIWIL2 (11732686_x_at) / Fold change /veh PIWIL2 (11732686_x_at) / RFU ORM1 (11744905_x_at) / Fold change /veh ORM1 (11744905_x_at) / RFU CCDC152 (11743942_at) / Fold change /veh CCDC152 (11743942_at) / RFU ECM1 (11717891_a_at) / Fold change /veh ECM1 (11717891_a_at) / RFU IL23R (11748794_a_at) / Fold change /veh IL23R (11748794_a_at) / RFU TNFAIP8L3 (11732012_x_at) / Fold change /veh TNFAIP8L3 (11732012_x_at) / RFU MBOAT4 (11741988_at) / Fold change /veh MBOAT4 (11741988_at) / RFU 11764193_at / Fold change /veh 11764193_at / RFU TMEM53 (11763286_at) / Fold change /veh TMEM53 (11763286_at) / RFU MAGEB2 (11727129_at) / Fold change /veh MAGEB2 (11727129_at) / RFU TMEM200A (11744735_a_at) / Fold change /veh TMEM200A (11744735_a_at) / RFU CCDC152 (11751479_a_at) / Fold change /veh CCDC152 (11751479_a_at) / RFU FAM211A (11726209_a_at) / Fold change /veh FAM211A (11726209_a_at) / RFU RGS16 (11746705_a_at) / Fold change /veh RGS16 (11746705_a_at) / RFU VCAN (11755009_s_at) / Fold change /veh VCAN (11755009_s_at) / RFU RHOB (11743442_s_at) / Fold change /veh RHOB (11743442_s_at) / RFU RGS16 (11720943_a_at) / Fold change /veh RGS16 (11720943_a_at) / RFU RGS16 (11720944_at) / Fold change /veh RGS16 (11720944_at) / RFU, VPS4B / Fold change vs veh, VPS4B / RFU, CREB1 / Fold change vs veh, CREB1 / RFU, DNAJC13 / Fold change vs veh, DNAJC13 / RFU, GNAQ / Fold change vs veh, GNAQ / RFU, CDK5R1 / Fold change vs veh, CDK5R1 / RFU, ZRANB3 / Fold change vs veh, ZRANB3 / RFU, CUL4A / Fold change vs veh, CUL4A / RFU, CCNY / Fold change vs veh, CCNY / RFU, UFL1 / Fold change vs veh, UFL1 / RFU, COG3 / Fold change vs veh, COG3 / RFU, DIAPH2 / Fold change vs veh, DIAPH2 / RFU, SKA2 / Fold change vs veh, SKA2 / RFU, AFF3 / Fold change vs veh, AFF3 / RFU, LMF1 / Fold change vs veh, LMF1 / RFU, IPO11 / Fold change vs veh, IPO11 / RFU, DFFB / Fold change vs veh, DFFB / RFU, FOXP1 / Fold change vs veh, FOXP1 / RFU, CARD8 / Fold change vs veh, CARD8 / RFU, STRN3 / Fold change vs veh, STRN3 / RFU, ADK / Fold change vs veh, ADK / RFU, RASSF2 / Fold change vs veh, RASSF2 / RFU, WIPF1 / Fold change vs veh, WIPF1 / RFU, LARP1B / Fold change vs veh, LARP1B / RFU, RASA1 / Fold change vs veh, RASA1 / RFU, RB1 / Fold change vs veh, RB1 / RFU, PPFIA1 / Fold change vs veh, PPFIA1 / RFU, MAT2A / Fold change vs veh, MAT2A / RFU, CCT5 / Fold change vs veh, CCT5 / RFU, WDR92 / Fold change vs veh, WDR92 / RFU, CUX1 / Fold change vs veh, CUX1 / RFU, TTC7A / Fold change vs veh, TTC7A / RFU, TMEM135 / Fold change vs veh, TMEM135 / RFU, DEPTOR / Fold change vs veh, DEPTOR / RFU, CPM / Fold change vs veh, CPM / RFU, DNAJB6 / Fold change vs veh, DNAJB6 / RFU, CACNA2D3 / Fold change vs veh, CACNA2D3 / RFU, DTX4 / Fold change vs veh, DTX4 / RFU, TFCP2 / Fold change vs veh, TFCP2 / RFU, GMCL1 /// GMCL1P1 / Fold change vs veh, GMCL1 /// GMCL1P1 / RFU, AEBP2 / Fold change vs veh, AEBP2 / RFU, SNHG1 /// SNORD22 /// SNORD25 /// SNORD26 /// SNORD27 /// SNORD28 /// SNORD29 /// SNORD31 / Fold change vs veh, SNHG1 /// SNORD22 /// SNORD25 /// SNORD26 /// SNORD27 /// SNORD28 /// SNORD29 /// SNORD31 / Fold change (Aza/veh), C12orf56 (ProbeSet 11735607_a_at) / Fold change (ACY-1035/veh), C12orf56 (ProbeSet 11735607_a_at) / Fold change (Aza/veh), FGFR1OP (ProbeSet 11751329_s_at) / Fold change (ACY-1035/veh), FGFR1OP (ProbeSet 11751329_s_at) / Fold change (Aza/veh), VPS36 (ProbeSet 11739960_a_at) / Fold change (ACY-1035/veh), VPS36 (ProbeSet 11739960_a_at) / RFU SYPL1 (11715823_x_at) / Fold change /veh SYPL1 (11715823_x_at) / RFU IGFBP7 (11715501_s_at) / Fold change /veh IGFBP7 (11715501_s_at) / RFU REEP3 (11722064_at) / Fold change /veh REEP3 (11722064_at) / RFU IGLL1 (11728026_x_at) / Fold change /veh IGLL1 (11728026_x_at): dose or concentration left out as unconfirmed
Settings: MV-4-11 cells, 48 hours

Nc1ncn([C@@H]2O[C@H](CO)[C@@H](O)[C@H]2O)c(=O)n1 [azacitidine]
RFU CLDN22 /// WWC2 (11732394_at): 8.78 RFU
